These results are taken from BindingDB's records for doi:10.1021/jm401549m (Chiesi Farmaceutici, 2014).

Molecules are shown by their SMILES.

The assay has as its target cGMP-specific 3',5'-cyclic phosphodiesterase PDE5A (Homo sapiens) (UniProt O76074). In words: Inhibition of human platelet PDE5.

Usually IC50 stands for the concentration needed to halve the response being measured. Higher therefore signals lower potency. `CS(=O)(=O)Nc1ccc(C(=O)O[C@@H](Cc2c(Cl)c[n+]([O-])cc2Cl)c2ccc(OC(F)F)c(OCC3CC3)c2)cc1OCC1CC1` [Chf-6001] registered an IC50 of more than 1000 nM.
